# Measured values taken from PMC5855688, “BC-Box Motif-Mediated Neuronal Differentiation of Somatic Stem Cells” (International Journal of Molecular Sciences, 2018).
# Entries after “also recorded” stand apart in the source; their conditions may differ.
# Experiments:
# Assay type in all cases: cell-based, rat (neonate Wistar)
# [1] = tested on: skin-derived precursors (SKPs); test: Immunocytochemistry with anti-Neurofilament-H (NFH) antibody; conditions: immunocytochemistry, peptides at 1 to 5 μM; mean ± SEM; vs VHL(157–171): p < 0.01 for VHL(157–168), p < 0.005 for TAT
# Method: (§1) Rodent skin-derived precursor cells (SKPs), which can differentiate to neurons, were used. SKPs were previously isolated from the back dermis of neonate Wistar rats by the authors. These cells were cultured in growth medium composed of DMEM/F12 (1:1; Gibco, Grand Island, NY, USA) containing 2% B27 supplement (Gibco), 20 ng/mL epidermal growth factor (EGF; Upstate Biotechnology, Lake Placid, NY, USA), and 40 ng/mL bFGF (PeproTech EC Ltd., Rocky Hill, NJ, USA) in a humidified incubator at 37 °C with 5% CO2. The floating clusters of cultured cells were centrifuged and dissociated into a single-cell suspension by use of a Pasteur pipette with a flame-polished tip. These single cells were then re-suspended into at a concentration of 50,000 cells/mL for passage or experiments.
# (§2) For neuronal differentiation, cells were dissociated into a single-cell suspension by use of a Pasteur pipette and re-suspended into a concentration of 50,000 cells/mL in DMEM/F12 without serum, neurotrophic factors or growth factors. Then, the cells were cultured on poly-L-lysine-coated dishes or cover glasses, and the synthesized peptides at concentrations from 1 to 5 μM were added to the culture medium and delivered into the cells. Three days or more later, the cells were used for morphological, immunocytochemical, immunohistochemical, electrophysiological and immunoprecipitation studies, as well as for Western blot analysis.
# Cultured cells were fixed with 4% paraformaldehyde in PBS (Phosphate buffered saline) for 10 min at room temperature. Cells were incubated for 1 h at room temperature with primary antibodies. Antibodies against anti-MAP2 antibody (Sigma-Aldrich, St. Louis, MO, USA), anti-Neurofilment-H (NFH) antibody (Sigma-Aldrich), anti-NeuN antibody (Merk Millipore, Billerica, MA, USA), anti-GFAP antibody (DAKO, Santa Clara, CA, USA), anti-tyrosine hydroxylase (TH) antibody (Merk Millipore, Billerica, MA, USA), anti-choline acetyl transferase (ChAT) antibody (Abbiotec, San Diego, CA, USA), anti-glutamic acid decaboxylase (GAD) antibody (Enzo Life Sciences, Flamingdale, NY, USA), and anti-rhodopsin antibody (Santa Cruz, San Diego, CA, USA) were used. […] Nuclear counterstaining was done with DAPI (Molecular Probes, Eugene, OR, USA) or TO-PRO-3 (Molecular Probes), and observations were made with a fluorescence microscope system (FV300, Olympus, Tokyo, Japan). We counted the number of immuno-positive cells with a given antibody in 4 to 6 random non-overlapping visual fields (50–200 cells per field) in each experiment. […] The degree of positivity was expressed as the rate of immuno-positive cells to the total number of nuclei stained with DAP1 or TO-PRO-3.
# [2] = tested on: skin-derived precursors (SKPs); test: Whole-cell patch-clamp electrophysiology; conditions: five days after peptide addition at 3 μM, holding potential −80 mV, steps of 20 mV from −100 to 100 mV, VHL(157–168) vs VHL(157–171) p < 0.01
# Method: as §1, §2
# To record fast sodium and delayed rectifier potassium currents, we prepared extracellular and intracellular solutions as described previously. […] For recordings and data analysis we used CEZ-2300 (Nihon Kohden, Tokyo, Japan) and pCLAMP 6.0 software (Axon Instruments, Burlingame, CA, USA). Linear components of leak and capacitive currents were reduced by analogue circuitry and then canceled by the P/N method. Signals were sampled every 20 μs, and currents were filtered at 5 kHz. Data were additionally processed with Origin 5.0 (Microcal, Northhampton, MA, USA).
# [3] = tested on: skin-derived precursors (SKPs); test: Western blot analysis of NFH protein; conditions: three days after treatment, Figure 3B, peptides at 1 to 5 μM, less than VHL(157–171): VHL(157–168) p < 0.01, TAT p < 0.001
# Method: as §1, §2
# Cultured cells were washed 3 times in cold PBS and then scraped into ice-cold PBS. After incubation on ice for 10 min, the cells were lysed with lysis buffer and centrifuged, after which the supernatants were collected. Each sample was separated by SDS-PAGE under reducing conditions and transferred electrophoretically to nitrocellulose filters. Non-specific binding of antibody was blocked by incubation with 5% donkey serum for 1 h. Western blots were probed with anti-MAP2 antibody, anti-NFH antibody, anti-ChAT antibody, anti-GAD antibody, anti-rhodopsin antibody, anti-TH antibody, and anti-elongin C antibody (Santa Cruz, San Diego, CA, USA) followed by horseradish peroxidase-conjugated secondary antibodies. Protein bands were detected by using a chemical luminescence detection system (ECL Plus Western Blotting Reagent Pack, Amersham, Hemel Hempstead, UK). Images were analyzed with LAS-1000 (Fujifilm, Tokyo, Japan), and the density of the bands was determined by using Image Gauge software (Fujifilm).
# [4] = tested on: skin-derived precursors (SKPs); test: Neurite outgrowth / morphological evaluation of neuronal differentiation
# Method: as §1, §2
# Neurite outgrowth with length exceeding the diameter of the neuronal soma is often assessed as a morphological index of neuronal differentiation. After a single-cell suspension was made by pipetting, the cells were cultured in DMEN/F12 medium alone at 37 °C in a 5% CO2 incubator. Thereafter, neurite outgrowth was evaluated with the following 4 levels: +++, for above 50% of the cells showing neurite outgrowth; ++, for 20–50% with neurite outgrowth; +, for 5–19% having neurite outgrowth; and −, for below 5% of the cells with neurite outgrowth.
sequence,measurement,setting,value
"YARAAARQARATLKERCLQVVRSLVK [VHL(157–171), NDD in pVHL: BC-box motif plus five amino acids, conjugated with PTD]",Percentage of NFH-positive cells,[1],60.4 ± 6.4%
same,Voltage-gated outward K+ and inward Na+ currents,[2],both large outward potassium currents and fast inward Na^+ currents
same,NFH protein amount / band,[3],A distinct band for NFH; also recorded: significantly greater amount of anti-NFH protein
same,Neurite Outgrowth Activity,"[4]; BC-box motif plus five C-terminal amino acids peptides, delivered with TAT PTD, 1 to 5 μM",+++ (above 50% of the cells showing neurite outgrowth)
same,Neurite Outgrowth Activity,"[4]; Figure 2A, rates of cells having neurites, peptides at 1 to 5 μM, VHL157–168 vs VHL(157–171) p < 0.005",showed neurite outgrowth activity to the same extent as VHL(155–171); also recorded: greatest of rate of cells having neurites
